We go through 4 molecules from patent publication US6765104B1, “Transition metal complexes of n, n',n″trialkyl-cis-1,3,5-triaminocyclohexane and related compositions and methods of synthesis and use” (The United States of America as represented by the …, priority 1999, dated 2004).

A short description of data set [1]: Hydrolysis of bis(p-nitrophenyl)phosphate, initial rate of 4-nitrophenolate formation at 400 nm. Format: biochemical. On the procedure:
The copper (II) complex of N,N′,N″-trimethyl-cis,cis-1,3,5-triaminocyclohexane prepared in accordance with the method of Example 2 (1 mM) was combined with bis(4-nitrophenyl)phosphate (1 mM) and HEPES (50 mM), pH 7.24, at 50° C. and incubated, while monitoring for an increase in absorbance at 400 nm. An aliquot was withdrawn and analyzed by reverse phase HPLC, eluted with a linear gradient of 100% 50 mM acetic acid/50 mM triethylamine to 100% methanol over thirty minutes. The signals observed in the reaction mixture corresponded to the predicted hydrolytic products, p-nitrophenyl phosphate (10.5 min) and 4-nitrophenolate (16.8 min), as well as unreacted bis(p-nitrophenyl)phosphate (20.2 min). Products were confirmed by co-injection of standards.
(§1) Measurements were performed as previously described (Deal et al. (Inorg. Chem. 1996), supra). Briefly, the initial rate of formation of 4-nitrophenolate was monitored spectrophotometrically at 400 nm for 1 hr or for less than 10% conversion of bis(p-nitrophenyl)phosphate to products. Reactions were run in sets of four, triplicate reaction mixtures and one reference. Spontaneous hydrolysis of the phosphate diester was corrected in the reference, which was identical to the reaction mixture, except lacking metal complex. The concentration of 4-nitrophenolate was calculated from the absorbance using an extinction coefficient of 18700 L mol^−1 cm^−1. The initial rate was obtained from the slope of the plots of 4-nitrophenolate concentration vs. time.

For data set [2] the following is noted: Deal et al. (Inorg. Chem. 1996); cited from earlier work.
The test system of data set [3] is Chinese hamster V79 cells. As to the kind of experiment: Cytotoxicity by macroscopic colony formation, surviving fraction of V79 cells. Format: cell-based. To be noted: for treated cells that survive: concentration of 3 mM, FIG. 1. On the procedure: Chinese hamster V79 cells were maintained in a 5% CO2/95% air humidified atmosphere at 37° C. in nutrient mixture F12 with 10% heat-inactivated fetal bovine serum and antibiotics. One day before each experiment, 5×10^5 V79 cells were plated into 100 mm petri dishes and incubated overnight The cells were exposed to the copper complex of N,N′,N″-triethyl-cis,cis-1,3,5-triaminocyclohexane or N,N,N″-triethyl-cis,cis-1,3,5-triaminocyclohexane or the corresponding ligand of N,N′,N″-triethyl-cis,cis-1,3,5-triaminocyclohexane or N,N′,N″-triethyl-cis,cis-1,3,5-triaminocyclohexane alone for 1 or 24 hours, after which they were rinsed, trypsinized, and plated for macroscopic colony formation. After incubating for 7 days, colonies were fixed with methanol/acetic acid and stained with crystal violet. Colonies larger than 50 cells were counted.

A short description of data set [4]: Hydrolysis of ethyl (p-nitrophenyl)phosphate. Format: biochemical. On the procedure:
as §1
Bis(p-nitrophenyl)phosphate was hydrolyzed more rapidly than ethyl (p-nitrophenyl)phosphate, which was hydrolyzed more rapidly than p-nitrophenyl phosphate. Thus, the rate of metal-promoted hydrolysis is dependent on the electron-withdrawing ability of the leaving group. Leaving groups which are strongly electron-withdrawing are considered activated and hydrolyze more rapidly. […]

The subject of data set [5] is hypoxic MCF-7 human mammary carcinoma cells. As to the kind of experiment: Cytotoxicity to hypoxic MCF-7 cells, surviving fraction. Format: cell-based. Particulars: 1500 μM, 1 hour, FIG. 3. On the procedure:
(§2) MCF-7 human mammary carcinoma cells were maintained in a 5% CO2/95% air humidified atmosphere at 37° C. in RPMI 1640 with 10% heat-inactivated fetal bovine serum and antibiotics. For hypoxia experiments, 3×10^5 MCF-7 cells were plated into glass flasks, and incubated overnight The flasks were sealed with a rubber stopper, and two hypodermic needles were inserted to allow for gassing. Flasks were gassed with a 95% nitrogen/5% carbon dioxide mixture for one hour. The copper complex was added to the cells after they were hypoxic through a glass sidearm connected to the flask by a ground glass connection. Cells were incubated for 1 hour for experiments to assess the toxicity of the copper complex, then plated and incubated as described previously in Example 4.

The test system is the same in data set [6]. As to the kind of experiment: Hypoxic irradiation with the copper complex, surviving fraction of MCF-7 cells. Particulars: 15 minutes with complex, then irradiated, FIG. 4. It is filed as cell-based. On the procedure:
as §2, with “4. For hypoxic irradiation experiments, cells were incubated with the copper complex for 15 minutes, then irradiated, plated and incubated as described previously in Example 4. Cells were irradiated with an Eldorado 8 Cobalt-60 teletherapy machine (Theratronics International Ltd., Kanata, Ontario, Canada). The dose rate varied form 200 to 150 cGy/min during the course of this study. Decay corrections were done monthly, and full electron equilibrium was ensured for all irradiations.” for “4.”

For the molecule `O=P(O)(O)OP(=O)(O)O` [pyrophosphate, reference compound], in data set [1] (0.5 equivalents relative to the copper complex), the “inhibition of the hydrolysis reaction” value is recorded as “completely inhibited”.
As to “copper (II) triazacyclononane [copper (II) triazacyclononane system]”, in data set [2], the “rate of phosphate diester hydrolysis” value is 1.3e-06 s⁻¹.
Regarding “copper complex of N,N′,N″-triethyl-cis,cis-1,3,5-triaminocyclohexane”, the “treated cells that survive” value in data set [3] is 15%.
For orientation: Km means the substrate concentration at which the rate is half of its maximum. With “copper complex of N,N′,N″-trimethyl-cis,cis-1,3,5-triaminocyclohexane”, the “concentration producing approximately the same effect, cells treated for 1 hr” value in data set [3] (1 hr, FIG. 2) is 4000 µM. In data set [3] (24 hrs, FIG. 2), the “concentration producing approximately the same effect, cells treated for 24 hrs” value is 1000 µM. The “treated cells that survive” value in data set [3] was 3%. Besides, in data set [4], the “rate acceleration compared to the copper (II) triazacyclononane system” value stood at 6.7. In addition, the “treated hypoxic cells destroyed” value in data set [5] is recorded as “approximately 99%”. In data set [6], the “radiation alone needed for the same effect as radiation plus the copper complex” value is recorded as “Approximately twice”. In data set [1], the “rate of phosphate diester hydrolysis relative to the copper (II) triazacyclononane system” value is “approximately 6.5 times faster”. Also, the “pKa from plot of log initial rate versus pH (Dixon method)” value in data set [1] (consistent with deprotonation of a copper(II) coordinated water molecule) came to 7.3. In data set [1] (modified Lineweaver-Burke function), the “maximal velocity (Vmax)” value was found to be 9.3e-08 s⁻¹. Also, the Km in data set [1] (modified Lineweaver-Burke function, read-out: Michaelis Constant (Km)) stood at 4.4 mM.
